Assay results taken from article PMC12054212 (BMC Microbiology, 2025).

Assays:
Metallo-L1 β-lactamase [1] = biological target: T1, Metallo-L1 β-lactamase (Stenotrophomonas maltophilia, UniProt B2FTM1); assay: nitrocefin hydrolysis inhibition assay, absorbance at […] nm, […] enzyme; format: biochemical
Metallo-L1 β-lactamase [2] = biological target: T1, Metallo-L1 β-lactamase; assay: nitrocefin hydrolysis inhibition assay, absorbance at […] nm, positive control; format: biochemical

T1 sequence (B2FTM1 22-290): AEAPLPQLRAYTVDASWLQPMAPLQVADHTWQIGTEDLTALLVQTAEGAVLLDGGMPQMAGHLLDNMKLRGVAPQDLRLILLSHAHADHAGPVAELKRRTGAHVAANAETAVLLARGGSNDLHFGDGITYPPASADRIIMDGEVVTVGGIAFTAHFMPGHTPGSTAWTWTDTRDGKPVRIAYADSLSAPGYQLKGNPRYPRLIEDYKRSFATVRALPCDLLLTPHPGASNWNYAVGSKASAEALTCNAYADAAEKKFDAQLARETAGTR

IC50 (Metallo-L1 β-lactamase [1])	IC50 (Metallo-L1 β-lactamase [2])	SMILES
23 µM	–	Oc1c2ccccc2cc2cnc3ccccc3c12 [Benzo[j]phenanthridin-12-ol]
–	2.24 µM	O=C(O)CN(CCN(CC(=O)O)CC(=O)O)CC(=O)O [EDTA]
